IC50 data for 25 molecules are collected here from patent US11878970B2, “Allosteric chromenone inhibitors of phosphoinositide 3-kinase (PI3K) for the treatment of disease” (Petra Pharma Corporation, priority 2021, dated 2024).

Assay [1] addresses T1, PI3K-α (PIK3CA) wild-type (WT), p110α/p85α complex (Homo sapiens, UniProt P42336).
T1 construct: Recombinant, catalytically active human full length PIK3KA Wild-type and H1047R mutant; 6×His (N); purchased EMD Millipore Sigma 14-602M
Kind of assay: PI3K-alpha kinase (PIK3CA) biochemical activity, ADP-Glo, wild-type. In a few lines: (§1)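 ADP formation measured by ADP-Glo luminescence after reaction at 27 °C to about 10% ATP turnover, using 20 uM ATP, 50 uM PIP2diC8 or soy PI lipid, HEPES pH 7.4 with MgCl2. Enzyme (1-5 nM WT or H1047R p110α/p85α) and compound preincubated 1 h first; 10-point 1:3 curves fitted four-parameter for IC50.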

Assay [2] addresses T2, PI3K-α (PIK3CA) H1047R mutant, p110α/p85α complex (Homo sapiens, UniProt P42336, H1047R).
T2 construct: Recombinant, catalytically active human full length PIK3KA Wild-type and H1047R mutant; 6×His (N); purchased EMD Millipore Sigma 14-792M
Kind of assay: PI3K-alpha kinase (PIK3CA) biochemical activity, ADP-Glo, H1047R mutant. In a few lines:
as §1

The mark [3] stands for this setting: PIP2diC8 lipid substrate (footnote 1).

Molecules are shown by their SMILES. Bounds are passed on as bounds.

T2 sequence (P42336 whole entry H1047R): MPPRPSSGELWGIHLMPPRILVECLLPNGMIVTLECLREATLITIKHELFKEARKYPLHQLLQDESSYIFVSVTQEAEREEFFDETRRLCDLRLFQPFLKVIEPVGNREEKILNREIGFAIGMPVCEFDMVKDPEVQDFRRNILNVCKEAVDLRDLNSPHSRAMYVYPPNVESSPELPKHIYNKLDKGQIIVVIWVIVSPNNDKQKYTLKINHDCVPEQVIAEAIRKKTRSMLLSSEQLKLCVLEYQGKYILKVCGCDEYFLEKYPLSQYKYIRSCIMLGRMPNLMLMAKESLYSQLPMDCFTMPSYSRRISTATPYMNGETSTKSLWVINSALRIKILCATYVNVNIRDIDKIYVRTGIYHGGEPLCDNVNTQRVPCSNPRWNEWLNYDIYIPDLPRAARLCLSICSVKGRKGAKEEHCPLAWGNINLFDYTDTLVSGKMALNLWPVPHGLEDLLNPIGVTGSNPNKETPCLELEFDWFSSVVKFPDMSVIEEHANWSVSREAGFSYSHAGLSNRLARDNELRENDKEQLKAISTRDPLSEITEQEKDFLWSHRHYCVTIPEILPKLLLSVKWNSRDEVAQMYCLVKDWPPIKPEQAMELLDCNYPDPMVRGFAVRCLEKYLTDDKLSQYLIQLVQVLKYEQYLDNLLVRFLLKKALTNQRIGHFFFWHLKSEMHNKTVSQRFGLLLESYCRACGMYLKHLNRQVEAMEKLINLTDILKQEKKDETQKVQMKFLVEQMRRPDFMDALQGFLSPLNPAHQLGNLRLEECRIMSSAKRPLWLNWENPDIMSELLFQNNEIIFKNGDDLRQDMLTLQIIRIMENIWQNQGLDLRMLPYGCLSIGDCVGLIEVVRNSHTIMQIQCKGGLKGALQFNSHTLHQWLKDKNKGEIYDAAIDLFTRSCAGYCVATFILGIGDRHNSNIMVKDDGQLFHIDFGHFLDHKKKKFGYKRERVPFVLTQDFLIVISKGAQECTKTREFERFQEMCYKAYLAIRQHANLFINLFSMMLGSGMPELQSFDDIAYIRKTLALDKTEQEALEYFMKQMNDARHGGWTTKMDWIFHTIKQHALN
T2 sequence (P27986 whole entry partner): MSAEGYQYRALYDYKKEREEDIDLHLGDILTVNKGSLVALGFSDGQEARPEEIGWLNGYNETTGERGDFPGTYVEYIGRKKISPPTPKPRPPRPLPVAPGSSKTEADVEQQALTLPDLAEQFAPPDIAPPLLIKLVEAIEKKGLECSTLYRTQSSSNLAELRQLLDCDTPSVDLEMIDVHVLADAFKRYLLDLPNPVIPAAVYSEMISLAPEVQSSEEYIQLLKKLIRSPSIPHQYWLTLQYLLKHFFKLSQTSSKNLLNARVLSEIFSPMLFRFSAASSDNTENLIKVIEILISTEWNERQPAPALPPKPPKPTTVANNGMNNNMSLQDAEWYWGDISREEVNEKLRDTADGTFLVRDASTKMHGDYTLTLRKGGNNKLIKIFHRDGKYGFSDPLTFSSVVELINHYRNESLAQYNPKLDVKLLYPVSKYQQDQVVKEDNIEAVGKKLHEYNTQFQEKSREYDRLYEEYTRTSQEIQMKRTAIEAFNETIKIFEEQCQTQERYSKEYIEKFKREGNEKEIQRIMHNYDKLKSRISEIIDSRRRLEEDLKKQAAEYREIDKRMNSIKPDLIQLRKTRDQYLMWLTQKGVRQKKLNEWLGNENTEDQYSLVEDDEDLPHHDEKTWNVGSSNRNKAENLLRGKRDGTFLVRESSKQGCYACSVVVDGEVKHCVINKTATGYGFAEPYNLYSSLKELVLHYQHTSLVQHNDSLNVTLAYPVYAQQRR

Take `Cc1cc(-c2cc(=O)c3cc(C(F)(F)F)cc(C(C)Nc4ccc(Cl)nc4C(=O)O)c3o2)cc2cn(C)nc12` (centres unmarked) [Example 174, 6-Chloro-3-[1-[2-(2,7-dimethylindazol-5-yl)-4-oxo-6-(trifluoromethyl)chromen-8-yl]ethylamino]pyridine-2-carboxylic acid]: the IC50 in assay [1] (Soy PI lipid substrate) was greater than 10 µM; in assay [2] (Soy PI lipid substrate) it was less than 0.5 µM.

Regarding `Cc1cc(C(C)Nc2ccccc2C(=O)O)c2oc(-c3cccn4nccc34)cc(=O)c2c1` (single isomer, unassigned) [Example 106, 2-[1-(6-Methyl-4-oxo-2-pyrazolo[1,5-a]pyridin-4-yl-chromen-8-yl)ethylamino]benzoic acid], the IC50 in assay [1] (Soy PI lipid substrate) and in assay [2] (Soy PI lipid substrate) was less than 0.5 µM each time.

For the molecule `Cc1cc(C(C)Nc2ccccc2C(=O)O)c2oc(-c3ccc4c(c3)c(C)nn4C)cc(=O)c2c1` (single isomer, unassigned) [Example 165, 2-[1-[2-(1,3-Dimethylindazol-5-yl)-6-methyl-4-oxo-chromen-8-yl]ethylamino]benzoic acid], the IC50 in assay [1] (Soy PI lipid substrate) and in assay [2] (Soy PI lipid substrate) was less than 0.5 µM each time.

For `Cc1cc(C(C)Nc2ccccc2C(=O)O)c2oc(-c3ccc4nn(C)cc4c3)c(C(F)(F)F)c(=O)c2c1` (single isomer, unassigned) [Example 208, 2-[1-[6-Methyl-2-(2-methylindazol-5-yl)-4-oxo-3-(trifluoromethyl)chromen-8-yl]ethylamino]benzoic acid], the 50% inhibitory concentration (IC50) in assay [1] (Soy PI lipid substrate) and in assay [2] (Soy PI lipid substrate) was less than 0.5 µM each time.

Take `Cc1cc(C(C)Nc2ccc(Cl)c(F)c2C(=O)O)c2oc(-c3c(C)nc4ccccn34)cc(=O)c2c1` (single isomer, unassigned) [Example 182, 3-Chloro-2-fluoro-6-[1-[6-methyl-2-(2-methylimidazo[1,2-a]pyridin-3-yl)-4-oxo-chromen-8-yl]ethylamino]benzoic acid]: the values for the IC50 in assay [1] (Soy PI lipid substrate) and in assay [2] (Soy PI lipid substrate) were 1 to 5 µM and less than 0.5 µM, respectively.

Consider `Cc1cc(C(C)Nc2ccccc2C(=O)O)c2oc(-c3ccc4cncnc4c3)cc(=O)c2c1` (single isomer, unassigned) [Example 114, 2-[1-(6-Methyl-4-oxo-2-quinazolin-7-yl-chromen-8-yl)ethylamino]benzoic acid], for which the IC50 in assay [1] (Soy PI lipid substrate) and in assay [2] (Soy PI lipid substrate) was greater than 10 µM throughout.

For the molecule `Cc1cc(C(C)Nc2ccc(Cl)nc2C(=O)O)c2oc(-c3ccc4nn(C)cc4c3)cc(=O)c2c1` (single isomer, unassigned) [Example 206, 6-Chloro-3-[1-[6-methyl-2-(2-methylindazol-5-yl)-4-oxo-chromen-8-yl]ethylamino]pyridine-2-carboxylic acid], the IC50 in assay [1] (Soy PI lipid substrate) and in assay [2] (Soy PI lipid substrate) was less than 0.5 µM in each case.

In the case of `Cc1cc(C(C)Nc2ccccc2C(=O)O)c2oc(-c3nn(C)c4ccccc34)cc(=O)c2c1` (centres unmarked) [Example 12, 2-[1-[6-Methyl-2-(1-methylindazol-3-yl)-4-oxo-chromen-8-yl]ethylamino]benzoic acid], the figures for the IC50 in assay [1] (Soy PI lipid substrate) and in assay [2] (Soy PI lipid substrate) were 5 to 10 µM and less than 0.5 µM, respectively.

For the molecule `Cc1cc(C(C)Nc2ccccc2C(=O)O)c2oc(-c3nccc4cn(C)nc34)cc(=O)c2c1` (single isomer, unassigned) [Example 98, 2-[1-[6-Methyl-2-(2-methylpyrazolo[3,4-c]pyridin-7-yl)-4-oxo-chromen-8-yl]ethylamino]benzoic acid], the 50% inhibitory concentration (IC50) in assay [1] (Soy PI lipid substrate) and in assay [2] (Soy PI lipid substrate) was 5 to 10 µM each time.

For the molecule `Cc1cc(C(C)Nc2ccccc2C(=O)O)c2oc(-c3ccc4c(cnn4C)n3)c(C)c(=O)c2c1` (single isomer, unassigned) [Example 131, 2-[1-[3,6-Dimethyl-2-(1-methylpyrazolo[4,3-b]pyridin-5-yl)-4-oxo-chromen-8-yl]ethylamino]benzoic acid], the results for the IC50 in assay [1] (Soy PI lipid substrate) and in assay [2] (Soy PI lipid substrate) were 1 to 5 µM and less than 0.5 µM, respectively.

As to `Cc1cc(C(C)Nc2ccccc2C(=O)O)c2oc(-c3ccc4[nH]c(C(F)(F)F)cc4c3)cc(=O)c2c1` (centres unmarked) [Example 11, 2-[1-[6-Methyl-4-oxo-2-[2-(trifluoromethyl)-1H-indol-5-yl]chromen-8-yl]ethylamino]benzoic acid], the half-maximal inhibitory concentration (IC50) in assay [1] (setting [3]) and in assay [2] (setting [3]) was 0.5 to 1 µM each time.

Turning to `Cc1cc(C(C)Nc2ccccc2C(=O)O)c2oc(-c3ccc4cc(C)[nH]c4n3)cc(=O)c2c1` (single isomer, unassigned) [Example 20, 2-[1-[6-Methyl-2-(2-methyl-1H-pyrrolo[2,3-b]pyridin-6-yl)-4-oxo-chromen-8-yl]ethylamino]benzoic acid], the IC50 in assay [1] (Soy PI lipid substrate) was 1 to 5 µM; in assay [2] (Soy PI lipid substrate), less than 0.5 µM.

For the molecule `Cc1cc(C(C)Nc2ccc(Cl)nc2C(=O)O)c2oc(-c3ccc4nc(C)cn4c3)cc(=O)c2c1` (single isomer, unassigned) [Example 179, 6-Chloro-3-[1-[6-methyl-2-(2-methylimidazo[1,2-a]pyridin-6-yl)-4-oxo-chromen-8-yl]ethylamino]pyridine-2-carboxylic acid], the IC50 in assay [1] (Soy PI lipid substrate) was in the range of 5 to 10 µM; in assay [2] (Soy PI lipid substrate), 0.5 to 1 µM.

In the case of `CC(Nc1ccc(Cl)nc1C(=O)O)c1cc(C(F)(F)F)cc2c(=O)cc(-c3cc4ccccc4[nH]3)oc12` (single isomer, unassigned) [Example 100, 6-Chloro-3-[1-[2-(1H-indol-2-yl)-4-oxo-6-(trifluoromethyl)chromen-8-yl]ethylamino]pyridine-2-carboxylic acid], the IC50 in assay [1] (Soy PI lipid substrate) is greater than 10 µM; in assay [2] (Soy PI lipid substrate) it was less than 0.5 µM.

For the molecule `Cc1cc(C(C)Nc2ccc(C)nc2C(=O)O)c2oc(-c3nn(C)c4ccccc34)cc(=O)c2c1` (single isomer, unassigned) [Example 176, 6-Methyl-3-[1-[6-methyl-2-(1-methylindazol-3-yl)-4-oxo-chromen-8-yl]ethylamino]pyridine-2-carboxylic acid], the 50% inhibitory concentration (IC50) in assay [1] (Soy PI lipid substrate) was greater than 10 µM; in assay [2] (Soy PI lipid substrate) it was less than 0.5 µM.

Consider `Cc1cc(C(C)Nc2ccccc2C(=O)O)c2oc(-c3ccc4cncn4c3)cc(=O)c2c1` (single isomer, unassigned) [Example 79, 2-[1-(2-Imidazo[1,5-a]pyridin-6-yl-6-methyl-4-oxo-chromen-8-yl)ethylamino]benzoic acid], for which the IC50 in assay [1] (Soy PI lipid substrate) is 1 to 5 µM; in assay [2] (Soy PI lipid substrate), less than 0.5 µM.

For `COc1ccc2nc(-c3cc(=O)c4cc(C)cc(C(C)Nc5ccccc5C(=O)O)c4o3)cn2c1` (single isomer, unassigned) [Example 2, 2-[1-[2-(6-Methoxyimidazo[1,2-a]pyridin-2-yl)-6-methyl-4-oxo-chromen-8-yl]ethylamino]benzoic acid], the IC50 in assay [1] (Soy PI lipid substrate) is 1 to 5 µM; in assay [2] (Soy PI lipid substrate), 0.5 to 1 µM.

As for `Cc1cc(C(C)Nc2ccccc2C(=O)O)c2oc(-c3ccc4nc(C)cn4c3)cc(=O)c2c1` (single isomer, unassigned) [Example 17, 2-[1-[6-Methyl-2-(2-methylimidazo[1,2-a]pyridin-6-yl)-4-oxo-chromen-8-yl]ethylamino]benzoic acid], the IC50 was 1 to 5 µM in assay [1] (Soy PI lipid substrate) and less than 0.5 µM in assay [2] (Soy PI lipid substrate).

In the case of `Cc1cc(C(C)Nc2ccc(C)nc2C(=O)O)c2oc(-c3ccc4nn(C)cc4c3)c(C)c(=O)c2c1` (single isomer, unassigned) [Example 175, 3-[1-[3,6-Dimethyl-2-(2-methylindazol-5-yl)-4-oxo-chromen-8-yl]ethylamino]-6-methyl-pyridine-2-carboxylic acid], the IC50 is 0.5 to 1 µM in assay [1] (Soy PI lipid substrate) and less than 0.5 µM in assay [2] (Soy PI lipid substrate).

In the case of `Cc1cc(C(C)Nc2ccc(Cl)c(F)c2C(=O)O)c2oc(-c3ccc4nc(C)cn4c3)cc(=O)c2c1` (single isomer, unassigned) [Example 183, 3-chloro-2-fluoro-6-[1-[6-methyl-2-(2-methylimidazo[1,2-a]pyridin-6-yl)-4-oxo-chromen-8-yl]ethylamino]benzoic acid], the IC50 is 0.5 to 1 µM in assay [1] (Soy PI lipid substrate) and less than 0.5 µM in assay [2] (Soy PI lipid substrate).

As for `Cc1cc(C(C)Nc2ccccc2C(=O)O)c2oc(-c3ccc4nc(C)cn4c3)cc(=O)c2c1` (centres unmarked) [Example 16, 2-[1-[6-Methyl-2-(2-methylimidazo[1,2-a]pyridin-6-yl)-4-oxo-chromen-8-yl]ethylamino]benzoic acid], the concentration for half-maximal inhibition (IC50) in assay [1] (Soy PI lipid substrate) is 1 to 5 µM; in assay [2] (Soy PI lipid substrate), less than 0.5 µM.

Regarding `Cc1cn2cc(-c3oc4c(C(C)Nc5ccccc5C(=O)O)cc(F)cc4c(=O)c3C)ccc2n1` (single isomer, unassigned) [Example 56, 2-[1-[6-Fluoro-3-methyl-2-(2-methylimidazo[1,2-a]pyridin-6-yl)-4-oxo-chromen-8-yl]ethylamino]benzoic acid], the IC50 in assay [1] (Soy PI lipid substrate) and in assay [2] (Soy PI lipid substrate) was greater than 10 µM throughout.

On to `Cc1cc(C(C)Nc2ccc(Cl)nc2C(=O)O)c2oc(-c3nn(C)c4ccccc34)cc(=O)c2c1` (single isomer, unassigned) [Example 177, 6-Chloro-3-[1-[6-methyl-2-(1-methylindazol-3-yl)-4-oxo-chromen-8-yl]ethylamino]pyridine-2-carboxylic acid], for which the IC50 in assay [1] (Soy PI lipid substrate) and in assay [2] (Soy PI lipid substrate) was less than 0.5 µM in each case.

On to `Cc1cc(C(C)Nc2ccccc2C(=O)O)c2oc(-c3ccc4cn(C)nc4n3)cc(=O)c2c1` (single isomer, unassigned) [Example 135, 2-[1-[6-Methyl-2-(2-methylpyrazolo[3,4-b]pyridin-6-yl)-4-oxo-chromen-8-yl]ethylamino]benzoic acid], for which the IC50 in assay [1] (Soy PI lipid substrate) was 5 to 10 µM; in assay [2] (Soy PI lipid substrate), less than 0.5 µM.

With `CC(Nc1ccc(Cl)nc1C(=O)O)c1cc(C(F)(F)F)cc2c(=O)cc(-c3cc(Cl)c4nn(C)cc4c3)oc12` (single isomer, unassigned) [Example 194, 6-Chloro-3-[1-[2-(7-chloro-2-methyl-indazol-5-yl)-4-oxo-6-(trifluoromethyl)chromen-8-yl]ethylamino]pyridine-2-carboxylic acid], the IC50 in assay [1] (Soy PI lipid substrate) and in assay [2] (Soy PI lipid substrate) was 0.5 to 1 µM throughout.
